# In patent US6458782B1, “Remedies for diabetes” (priority 1997, dated 2002):
# Tests used:
# [1] = system: adipocyte strain 3T3L-1; assay: Differentiation of precursor adipocytes into adipocytes (Oil Red O staining, absorbance of extract); format: cell-based; details: culture for 13 days; for Absorbance (490 nm): Oil Red O extracted with isopropanol, Control 0.266
# Protocol: (§1) Therefore, effect of the medicaments of the present invention on enhancement of differentiation of precursor adipocytes into adipocytes was examined by using an adipocyte strain 3T3L-1 (obtained from Japanese Cancer Research Resource Bank) according to the published method (Endocrinology, 137, 4706, 1996). The cells were cultured in a culture dish having a diameter of 6 cm as a monolayer, and added with HX600, HX-620, HX-630, or HX-640 when the cells reached a density at which the cells began to contact with one another. After the culture for 13 days, lipid droplets in the cells were stained with Oil Red O. The dye was extracted with 1.0 ml of isopropanol (a modified method described in Methods in Enzymology, 32, 192), and absorbance (490 nm) of the extract was measured and used as index of differentiation into adipocytes.
# [2] = system: diabetic mice (C57BL/6J-Lepob); assay: Hypoglycemic action in diabetes model mice (blood glucose and acylglycerol level); format: in vivo; details: for Blood acylglyerol level, percentage based on the control group / Blood glucose level, percentage based on the control group / Blood acylglyerol level / Blood glucose level: 6th day; for Blood acylglyerol level: Control 132 ± 14; for Blood glucose level: Control 428 ± 82
# Protocol: Experiments were performed by using diabetic mice hereditarily have pathological conditions of fatness, hyperglycemia, and hyperlipidemia (C57BL/6J-Lepob, female, Jackson Laboratory, 10-week old) according to the method described in the literature (Diabetologia, 14, 141, 1978). Blood samples were collected one day before the start of the administration, and the mice were divided into three groups (one group consisted of 4 or 5 mice). One group was used as a medication group, and each mouse of the group was orally administered with HX-600 suspended in 0.1% carboxymethylcellulose as microparticules (30 mg/kg/day or 100 mg/kg/day) every day for 6 days. Mice of the control group were orally administered with only 0.1% carboxymethylcellulose. On the 6th day after the start of the administration, blood samples were collected from ophthalmic fundus veins.
# Blood glucose level was measured by the glucose oxidase method (Fuji Drychem Slide GLU-P), and acylglycerol level was measured by the glycerol phosphate dehydrogenase method (Fuji Drychem Slide TG-P). As a measurement apparatus, Fuji Drychem 5000 was used. […] Percentages based on the control group are also indicated.
# [3] = system: adipocyte strain 3T3L-1; assay: Enhancement of the differentiation of precursor adipocytes into adipocytes induced by insulin; format: cell-based; details: for Absorbance (490 nm): culture 9 days, Not added 0.072
# Protocol: as §1
# Synergistic effect of insulin used for therapeutic treatment of diabetes and the medicament of the present invention was examined. Cells of the adipocyte strain 3T3L-1 were cultured in a culture dish having a diameter of 3.5 cm as a monolayer, and added with 10 μg/ml of insulin and HX-600 (10^−6 M or 10^−8 M) when the cells reached a density at which the cells began to contact with one another. The culture was continued for 9 days.
# [4] = system: adipocyte strain 3T3L1; assay: Enhancement of the differentiation of precursor adipocytes into adipocytes induced by a thiazoline compound (troglitazone); format: cell-based; details: for Absorbance (490 nm): single compound 10^−7 M, culture 10 days, Control 0.086
# From the text: The culture was continued for 10 days.
# [5] = 30 mg/kg/day and 100 mg/kg/day, 6th day of the administration
Molecule,Absorbance (490 nm) ([1]; 10^−6 M),Absorbance (490 nm) ([1]; 10^−7 M),Absorbance (490 nm) ([1]; 10^−8 M),differentiation of precursor adipocyte 3T3L-1 into adipocytes (in words) [1],Absorbance (490 nm) [4],further results
"CC1(C)CCC(C)(C)c2cc3c(cc21)Sc1ccccc1N=C3c1ccc(C(=O)O)cc1 [HX-630, 4-[2,3-(2,5-dimethyl-2,5-hexano)dibenzo[b,f][1,4]thiazepin-11-yl]benzoic acid]",0.745,0.471,0.298,strongly promoted,–,–
"CN1c2ccccc2N=C(c2ccc(C(=O)O)cc2)c2cc3c(cc21)C(C)(C)CCC3(C)C [HX-600, 4-[5H-2,3-(2,5-dimethyl-2,5-hexano)-5-methyldibenzo [b,e][1,4]diazepin-11-yl]benzoic acid]",0.690,0.445,0.274,strongly promoted,0.131,"acylglycerol level versus the control group (in words) [2, 5]: remarkably lower; blood glucose level versus the control group (in words) [2, 5]: remarkably lower; Blood acylglyerol level, percentage based on the control group ([2]; 30 mg/kg/day oral for 6 days): 79.5%; Blood glucose level, percentage based on the control group ([2]; 30 mg/kg/day oral for 6 days): 60.3%; Blood acylglyerol level ([2]; 30 mg/kg/day oral for 6 days): 105 ± 14 mg/dL; Blood glucose level ([2]; 30 mg/kg/day oral for 6 days): 258 ± 56 mg/dL; Blood acylglyerol level, percentage based on the control group ([2]; 100 mg/kg/day oral for 6 days): 72.7%; Blood glucose level, percentage based on the control group ([2]; 100 mg/kg/day oral for 6 days): 55.6%; Blood acylglyerol level ([2]; 100 mg/kg/day oral for 6 days): 96 ± 11 mg/dL; Blood glucose level ([2]; 100 mg/kg/day oral for 6 days): 238 ± 59 mg/dL; Absorbance (490 nm) ([3]; HX-600 10^−6 M alone): 0.287; differentiation into adipocytes induced by the action of insulin (in words) ([3]; HX-600 10^−6 M and 10^−8 M with insulin 10 μg/ml, 9 days): synergistically promoted; Absorbance (490 nm) ([3]; HX-600 10^−8 M alone): 0.118; action of inducing differentiation into adipocytes by CS-045 (in words) ([4]; HX600 10^−7 M with CS-045 10^−7 M, 10 days): synergistically promoted"
"CC1(C)CCC(C)(C)c2cc3c(cc21)Oc1ccccc1N=C3c1ccc(C(=O)O)cc1 [HX-620, 4-[2,3-(2,5-dimethyl-2,5-hexano)dibenzo[b,f][1,4]oxazepin-11-yl]benzoic acid]",0.543,0.308,0.225,strongly promoted,–,–
insulin,–,–,–,–,–,Absorbance (490 nm) ([3]; insulin 10 μg/ml alone): 0.301
"Cc1c(C)c2c(c(C)c1O)CCC(C)(COc1ccc(CC3SC(=O)NC3=O)cc1)O2 (stereo not drawn) [CS-045, troglitazone, reference compound]",–,–,–,–,0.171,–
"4-[2,3-(2,5-dimethyl-2,5-hexano)dibenzo[b,e]azepin-11-yl]benzoic acid [HX-640]",0.825,0.694,0.365,strongly promoted,–,–
